Key:
green foxtail [1] = assay: Test C postemergence; type: in vivo, Setaria viridis; details: 10 days, 0 to 100 scale (0 no effect, 100 complete control)
Method in brief: (§1)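 Soil-applied (pre) and foliar (post, 1–2 leaf, 2–10 cm) sprays; surfactant-containing non-phytotoxic solvent vehicle; loam/sand substrate. Readout: visual % control at 10 d, greenhouse, versus untreated.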

barnyardgrass [2] = assay: Test C preemergence; type: in vivo, Echinochloa crusgalli; details: preemergence, 0 to 100 scale (0 no effect, 100 complete control)
Method in brief: as §1

barnyardgrass [3] = assay: Test D flooded paddy test; type: in vivo, Echinochloa crus-galli; details: 250 g ai/ha, applied to paddy water, visual rating after 13 to 14 days, scale 0 to 100 (0 no effect, 100 complete control)
Method in brief: (§2)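 2-leaf plants; flood 3 cm above soil; compound dosed into paddy water; greenhouse 13–14 d; visual rating vs controls, 0–100 (100 = complete control); dash = not tested.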

soybean [4] = assay: Test C preemergence; type: in vivo, Glycine max; details: preemergence, 0 to 100 scale (0 no effect, 100 complete control)
Method in brief: as §1

wheat [5] = assay: Test C postemergence; type: in vivo, Triticum aestivum; details: 10 days, 0 to 100 scale (0 no effect, 100 complete control)
Method in brief: as §1

oat, wild [6] = assay: Test C postemergence; type: in vivo, Avena fatua; details: 10 days, 0 to 100 scale (0 no effect, 100 complete control)
Method in brief: as §1

blackgrass [7] = assay: Test C postemergence; type: in vivo, Alopecurus myosuroides; details: 10 days, 0 to 100 scale (0 no effect, 100 complete control)
Method in brief: as §1

galium = assay: Test C postemergence; type: in vivo, Galium aparine; details: 10 days, 0 to 100 scale (0 no effect, 100 complete control)
Method in brief: as §1

soybean [8] = assay: Test C postemergence; type: in vivo, Glycine max; details: 10 days, 0 to 100 scale (0 no effect, 100 complete control)
Method in brief: as §1

barnyardgrass [9] = assay: Test C postemergence; type: in vivo, Echinochloa crusgalli; details: 10 days, 0 to 100 scale (0 no effect, 100 complete control)
Method in brief: as §1

corn [10] = assay: Test C postemergence; type: in vivo, Zea mays; details: 10 days, 0 to 100 scale (0 no effect, 100 complete control)
Method in brief: as §1

wheat [11] = assay: Test C preemergence; type: in vivo, Triticum aestivum; details: preemergence, 0 to 100 scale (0 no effect, 100 complete control)
Method in brief: as §1

rice = assay: Test D flooded paddy test; type: in vivo, Oryza sativa; details: 250 g ai/ha, applied to paddy water, visual rating after 13 to 14 days, scale 0 to 100 (0 no effect, 100 complete control)
Method in brief: as §2

pigweed, palmer [12] = assay: Test C postemergence; type: in vivo, Amaranthus palmeri; details: 10 days, 0 to 100 scale (0 no effect, 100 complete control)
Method in brief: as §1

kochia [13] = assay: Test C preemergence; type: in vivo, Bassia scoparia; details: preemergence, 0 to 100 scale (0 no effect, 100 complete control)
Method in brief: as §1

ryegrass, Italian [14] = assay: Test C postemergence; type: in vivo, Lolium multiflorum; details: 10 days, 0 to 100 scale (0 no effect, 100 complete control)
Method in brief: as §1

green foxtail [15] = assay: Test C preemergence; type: in vivo, Setaria viridis; details: preemergence, 0 to 100 scale (0 no effect, 100 complete control)
Method in brief: as §1

ryegrass, Italian [16] = assay: Test C preemergence; type: in vivo, Lolium multiflorum; details: preemergence, 0 to 100 scale (0 no effect, 100 complete control)
Method in brief: as §1

oat, wild [17] = assay: Test C preemergence; type: in vivo, Avena fatua; details: preemergence, 0 to 100 scale (0 no effect, 100 complete control)
Method in brief: as §1

sedge, umbrella = assay: Test D flooded paddy test; type: in vivo, Cyperus difformis; details: 250 g ai/ha, applied to paddy water, visual rating after 13 to 14 days, scale 0 to 100 (0 no effect, 100 complete control)
Method in brief: as §2

corn [18] = assay: Test C preemergence; type: in vivo, Zea mays; details: preemergence, 0 to 100 scale (0 no effect, 100 complete control)
Method in brief: as §1

pigweed, palmer [19] = assay: Test C preemergence; type: in vivo, Amaranthus palmeri; details: preemergence, 0 to 100 scale (0 no effect, 100 complete control)
Method in brief: as §1

blackgrass [20] = assay: Test C preemergence; type: in vivo, Alopecurus myosuroides; details: preemergence, 0 to 100 scale (0 no effect, 100 complete control)
Method in brief: as §1

ducksalad = assay: Test D flooded paddy test; type: in vivo, Heteranthera limosa; details: 250 g ai/ha, applied to paddy water, visual rating after 13 to 14 days, scale 0 to 100 (0 no effect, 100 complete control)
Method in brief: as §2

ragweed [21] = assay: Test C postemergence; type: in vivo, Ambrosia artemisiifolia; details: 10 days, 0 to 100 scale (0 no effect, 100 complete control)
Method in brief: as §1

kochia [22] = assay: Test C postemergence; type: in vivo, Bassia scoparia; details: 10 days, 0 to 100 scale (0 no effect, 100 complete control)
Method in brief: as §1

ragweed [23] = assay: Test C preemergence; type: in vivo, Ambrosia artemisiifolia; details: preemergence, 0 to 100 scale (0 no effect, 100 complete control)
Method in brief: as §1

horseweed = assay: Test C postemergence; type: in vivo, Erigeron canadensis; details: 10 days, 0 to 100 scale (0 no effect, 100 complete control)
Method in brief: as §1

CC(C)Oc1ncn(-c2cccc(C(=O)N3C[C@H](C)Oc4c(Cl)cccc43)c2)n1 [Compound 312]
Plant response rating, Foxtail, Green (green foxtail [1]; 500 g ai/ha, postemergence): 20
Plant response rating, Foxtail, Green (green foxtail [1]; Postemergence, 125 g ai/ha): 0
Barnyardgrass plant response rating (barnyardgrass [2]; 500 g ai/ha): 40
Barnyardgrass plant response rating (barnyardgrass [2]; Test C, 125 g ai/ha): 0
Plant response rating, Barnyardgrass (Flood) (barnyardgrass [3]): 0
Soybean plant response rating (soybean [4]; 500 g ai/ha): 10
Soybean plant response rating (soybean [4]; Test C, 125 g ai/ha): 0
Plant response rating, Wheat (wheat [5]; 500 g ai/ha, postemergence): 10
Plant response rating, Wheat (wheat [5]; Postemergence, 125 g ai/ha): 10
Plant response rating, Oat, Wild (oat, wild [6]; 500 g ai/ha, postemergence): 0
Plant response rating, Oat, Wild (oat, wild [6]; Postemergence, 125 g ai/ha): 0
Plant response rating, Blackgrass (blackgrass [7]; 500 g ai/ha, postemergence): 40
Plant response rating, Blackgrass (blackgrass [7]; Postemergence, 125 g ai/ha): 0
Plant response rating, Galium (galium; 500 g ai/ha, postemergence): 80
Plant response rating, Galium (galium; Postemergence, 125 g ai/ha): 60
Plant response rating, Soybean (soybean [8]; 500 g ai/ha, postemergence): 100
Plant response rating, Soybean (soybean [8]; Postemergence, 125 g ai/ha): 80
Plant response rating, Barnyardgrass (barnyardgrass [9]; 500 g ai/ha, postemergence): 10
Plant response rating, Barnyardgrass (barnyardgrass [9]; Postemergence, 125 g ai/ha): 10
Plant response rating, Corn (corn [10]; 500 g ai/ha, postemergence): 10
Plant response rating, Corn (corn [10]; Postemergence, 125 g ai/ha): 10
Wheat plant response rating (wheat [11]; 500 g ai/ha): 10
Wheat plant response rating (wheat [11]; Test C, 125 g ai/ha): 0
Plant response rating, Rice (Flood) (rice): 0
Plant response rating, Pigweed, Palmer (pigweed, palmer [12]; 500 g ai/ha, postemergence): 50
Plant response rating, Pigweed, Palmer (pigweed, palmer [12]; Postemergence, 125 g ai/ha): 10
Kochia plant response rating (kochia [13]; 500 g ai/ha): 20
Kochia plant response rating (kochia [13]; Test C, 125 g ai/ha): 0
Plant response rating, Ryegrass, Italian (ryegrass, Italian [14]; 500 g ai/ha, postemergence): 30
Plant response rating, Ryegrass, Italian (ryegrass, Italian [14]; Postemergence, 125 g ai/ha): 30
Foxtail, Green plant response rating (green foxtail [15]; 500 g ai/ha): 90
Foxtail, Green plant response rating (green foxtail [15]; Test C, 125 g ai/ha): 80
Ryegrass, Italian plant response rating (ryegrass, Italian [16]; 500 g ai/ha): 80
Ryegrass, Italian plant response rating (ryegrass, Italian [16]; Test C, 125 g ai/ha): 70
Oat, Wild plant response rating (oat, wild [17]; 500 g ai/ha): 70
Oat, Wild plant response rating (oat, wild [17]; Test C, 125 g ai/ha): 0
Plant response rating, Sedge, Umbrella (Flood) (sedge, umbrella): 0
Corn plant response rating (corn [18]; 500 g ai/ha): 10
Corn plant response rating (corn [18]; Test C, 125 g ai/ha): 0
Pigweed, Palmer plant response rating (pigweed, palmer [19]; 500 g ai/ha): 70
Pigweed, Palmer plant response rating (pigweed, palmer [19]; Test C, 125 g ai/ha): 20
Blackgrass plant response rating (blackgrass [20]; 500 g ai/ha): 80
Blackgrass plant response rating (blackgrass [20]; Test C, 125 g ai/ha): 50
Plant response rating, Ducksalad (Flood) (ducksalad): 0
Plant response rating, Ragweed (ragweed [21]; 500 g ai/ha, postemergence): 40
Plant response rating, Ragweed (ragweed [21]; Postemergence, 125 g ai/ha): 0
Plant response rating, Kochia (kochia [22]; 500 g ai/ha, postemergence): 80
Plant response rating, Kochia (kochia [22]; Postemergence, 125 g ai/ha): 20
Ragweed plant response rating (ragweed [23]; 500 g ai/ha): 0
Ragweed plant response rating (ragweed [23]; Test C, 125 g ai/ha): 0
Plant response rating, Horseweed (horseweed; 500 g ai/ha, postemergence): 0
Plant response rating, Horseweed (horseweed; Postemergence, 125 g ai/ha): 0

From patent US20260262643A1, “HERBICIDAL BENZOXAZINES” (FMC CORPORATION, priority 2022, published 2026)
